Values after ≈ are worked out from the molar mass of the structure shown.
Columns and labels:
MRSA strain AW7 = assay: Growth of bacterial populations on cefpirome-containing plates, with or without subinhibitory dalfopristine/quinupristine, strain AW7; type: cell-based, Staphylococcus aureus
Procedure: (§1) The study in vitro and the determination of the MICs (minimum inhibitory concentrations) was carried out using cultures on agar plates (Antimicrob. Agents Chemother., 39, 1419–1424 (1995), the disclosure of which is incorporated by reference herein).
(§2) Bacterial populations of the MRSA strains Ab 7 and P8 can grow on plates containing up to 60 mg/l of cefpirome.

[1] = test system: C-MLSB-resistant MRSA strains; assay: Rat experimental endocarditis resulting from C-MLSB-resistant MRSA strains (overall statement); type: in vivo, rats; conditions: monotherapy
Procedure: Synercid® (quinupristine/dalfopristine) and cefpirome were tested separately in rats, on experimental endocarditis resulting from C-MLSB-resistant MRSA strains.
(§3) For the experimental endocarditis study, Wistar female rats weighing 200 g with aortic vegetation (produced according to the method described by Heraief et al., Infect Immunol., 37,127–31 (1982), the disclosure of which is incorporated by reference herein) were infected with an inoculum of 10^5 CFU/ml of the organism to be tested, which corresponds to 10 times the minimum inoculum to produce endocarditis in at least 90% of the untreated controls (where CFU refers to colony forming units).
(§4) The treatment was started 12 hours after the bacterial infection, and was continued for 5 days. […]
(§5) The control rats were sacrificed at the start of the treatment and the treated rats were sacrificed 24 hours after the final antibiotic administration. The bacterial density in the vegetations was determined after dissecting the vegetations under sterile conditions, weighing, homogenizing in 1 ml of saline solution, and then diluting the solution (series of dilutions) before placing it onto plates for counting of the colonies. The number of colonies growing on the plates was determined after 48 hours of incubation at 35° C. The bacterial densities in the vegetations were expressed as log10 CFU/g of tissue. […]

MRSA strain P8 = assay: Growth of bacterial populations on cefpirome-containing plates, with or without subinhibitory dalfopristine/quinupristine, strain P8; type: cell-based, Staphylococcus aureus
Procedure: as §1, §2

MRSA AW7 = assay: Rat experimental aortic endocarditis, MRSA AW7; type: in vivo, Wistar female rats
Description: as §3, §4, §5

[2] = test system: MRSA strain AW7 (C-MLSB-resistant); assay: MIC determination on agar plates, MRSA strain AW7; type: cell-based; conditions: Staphylococcus aureus, read-out: minimum inhibitory concentration (MIC)
Procedure: (§6) The microorganisms tested were two clinical isolates of C-MLSB-resistant MRSA: strains AW7 and P8, previously characterized in vitro, and in vivo in rat experimental endocarditis.
as §1

[3] = test system: MRSA strain P8 (C-MLSB-resistant); assay: MIC determination on agar plates, MRSA strain P8; type: cell-based; conditions: Staphylococcus aureus, read-out: minimum inhibitory concentration (MIC)
Procedure: as §6, §1

MRSA P8 = assay: Rat experimental aortic endocarditis, MRSA P8; type: in vivo, Wistar female rats; conditions: MRSA P8, 5 days treatment, FIG. 2; monotherapy P>0.05, combination P<0.05
Description: as §3, §4, §5

in vivo = assay: in vivo; set-up: species or system rats; conditions: Wistar, rat, iv
Procedure: The treatment was started 12 hours after the bacterial infection, and was continued for 5 days. The antibiotics were administered by means of a permanent venous catheter with a programmable pump (Pump 44; Harvard Apparatus Inc.) according to the method described in Antimicrobial Agents Chemother., 39, 1419–1424 (1995), the disclosure of which is incorporated by reference herein. The treatments simulated kinetics in humans, which were produced by intravenous administration of 7 mg/kg of quinupristine/dalfopristine every 12 hours, or by intravenous administration of 2 g of cefpirome every 12 hours.
Prior to the treatment experiments, the setting up of the simulation of the human kinetics of the quinupristine/dalfopristine combination with cefpirome in rats was performed on animals that were catheterized, but not infected. In these preliminary experiments, each point of the pharmacokinetics curve is the mean (±standard deviation) of the concentrations measured in 6 different rats. The concentrations of product in the serum were measured in a bioassay (using Micrococcus luteus for quinupristine/dalfopristine, and Bacillus subtilis ATCC 6633 for cefpirome).
These values are in accordance with the therapeutic levels observed in humans for these active principles. […]

CO/N=C(\C(=O)N[C@@H]1C(=O)N2C(C(=O)[O-])=C(C[n+]3cccc4c3CCC4)CS[C@H]12)c1csc(N)n1 [cefpirome]
cefpirome concentration in plates up to which bacterial populations can grow (MRSA strain AW7; MRSA strain AW7 (printed Ab 7), cefpirome alone): up to 60 mg/l | cefpirome concentration in plates at which the strain did not grow (MRSA strain AW7; MRSA strain AW7, plates with subinhibitory (¼ MIC) dalfopristine/quinupristine combination added): ≥ 5 mg/L | effectiveness in vivo [1]: Neither Synercid® nor cefpirome showed any effectiveness in vivo in monotherapy | cefpirome concentration in plates up to which bacterial populations can grow (MRSA strain P8; MRSA strain P8, cefpirome alone): up to 60 mg/l | cefpirome concentration in plates at which the strain did not grow (MRSA strain P8; MRSA strain P8, plates with subinhibitory (¼ MIC) dalfopristine/quinupristine combination added): ≥ 15 mg/L | effectiveness on aortic endocarditis (statistical significance) (MRSA AW7; MRSA AW7, 5 days treatment, FIG. 2, monotherapy P>0.05, combination P<0.05): neither quinupristine/dalfopristine, nor cefpirome, in monotherapy were significantly effective | log10 CFU/g of vegetation (MRSA AW7; MRSA AW7, in 38% of the cases): >8.7 in 38% log10 CFU/g | MIC [2]: 4 µg/mL (≈ 7.77 µM) | MIC [3]: 2 µg/mL (≈ 3.89 µM) | effectiveness on aortic endocarditis (statistical significance) (MRSA P8): neither quinupristine/dalfopristine, nor cefpirome, in monotherapy were significantly effective | concentration at 5 min (in vivo): 161 ± 19.7 µg/mL | concentration at 12 h (in vivo): 2.2 ± 1.4 µg/mL

Source: patent US7005416B2, “Dalfopristine/quinupristine combinations with cefpirome” (Jones Pharma Incorporated, priority 2000, dated 2006)
